{"source": "patent US20240026554A1", "about": "“ANTIOXIDANT CULTURE METHOD AND ANTIOXIDANT AUXILIARY EQUIPMENT” (National Pingtung University of Science and Technology, priority 2022, published 2024)", "key": {"[1]": {"test_system": "BHK21 cells infected with bovine epidemic fever virus", "conditions": "24 hours after virus infection; experimental group vs control group", "protocol": "(§1) On the second day, the antioxidant auxiliary equipment was started, and hydrogen gas was supplied at the frequency of turning on the current for 15 minutes per hour. On the third day, the frequency of the current was adjusted to the frequency of turning on the current for 15 minutes and turning off the current for 15 minutes. 0.01 MOI bovine epidemic fever virus liquid (virus strain Tn88128 , References: Hsieh, Y -C.; Wang, S. -Y; Lee, Y -F.; Chen, S. -H.; Mak, P. O. T.; Chu, C. -Y. DNA sequence analysis of glycoprotein G gene of bovine ephemeral fever virus and development of a double oil emulsion vaccine against bovine ephemeral fever. J. Vet. Med. Sci. 2006, 68, 543-548) was used for infecting two groups of cells and the virus was cultured until the eighth day (day 8), the voltage was 3-5V, and the current was 0.5 A. The cell number, hydrogen concentration, viral titer and cell senescence molecular marker Cdkn2a (p16) were measured daily.\nAfter virus infection, the cells on the carrier sheet in the bioreactors of the experimental group and the control group were collected every day, 1 ml of CVD was added, and the number of cells was calculated on that day. The formula for calculating the cell death rate is [(total number of cells on the previous day)−(total number of cells on that day)]/(total number of cells on the previous day)*100%."}, "[2]": {"test_system": "bovine epidemic fever virus (strain Tn88128)", "conditions": "24 hours after virus infection (the 4th day), 0.01 MOI", "protocol": "(§2) 0.01 MOI bovine epidemic fever virus liquid (virus strain Tn88128 , References: Hsieh, Y -C.; Wang, S. -Y; Lee, Y -F.; Chen, S. -H.; Mak, P. O. T.; Chu, C. -Y. DNA sequence analysis of glycoprotein G gene of bovine ephemeral fever virus and development of a double oil emulsion vaccine against bovine ephemeral fever. J. Vet. Med. Sci. 2006, 68, 543-548) was used for infecting two groups of cells and the virus was cultured until the eighth day (day 8), the voltage was 3-5V, and the current was 0.5 A. The cell number, hydrogen concentration, viral titer and cell senescence molecular marker Cdkn2a (p16) were measured daily.\nAfter the virus infection, the virus tier in the virus liquid was measured by the TCID50 detection method after collecting the virus liquid in the bioreactors of the experimental group and the control group every day. The virus liquid was serially diluted 10-fold with MEM to 1/10^10th of original concentration, and then inoculated into a 96-well cell culture plate at 100 μl/well (100 μl of cell fluid was already added to each well, containing 2×10^4 BHK21 cells), the BHK21 cells were cultured in a 5% CO2 incubator at 37° C. for 3 days. After cytopathic effect (CPE) was observed and recorded, TCID50 was calculated using the Reed-Muench method."}, "[3]": {"test_system": "BHK21 cells infected with bovine epidemic fever virus", "conditions": "24 hours after virus infection, hydrogen group vs hydrogen-free group", "protocol": "(§3) By adding H2O2 at concentrations of 0 μM, 4 μM, 10 μM, and 20 μM, the BHK-21 cells (1×10^5/test) in the experimental group and in the control group were induced to undergo oxidation reaction. H2DCFDA was modified by cellular esterases to form a non-fluorescent H2DCF after adding H2DCFDA cell-permeant fluorescence probe.\nas §2\nTwo groups of cells infected with virus on part of the carrier sheets in the bioreactor were collected after 24 hours, and H2O2 with concentrations of 0 μM, 4 μM, 10 μM, and 20 μM was added to induce intracellular oxidation reaction, and the ROS fold changes were evaluated by the method of 2.3 in Example 2."}, "[4]": {"test_system": "hamster kidney cells (BHK21)", "conditions": "bioreactor with hydrogen vs without hydrogen, hydrogen supplied from day 2, culture to day 8", "protocol": "The hamster kidney cells were incubated at 37° C. in an incubator with 5.0% CO2 using MEM culture medium (Invitrogen, Gibco Co. Ltd., New York, USA, with 10% FBS). The hamster kidney cells were incubated in a cell culture flask (175T Flask) for 3 days, and then placed in a roller bottle for expanded culture for 3 days. At the beginning of the experiment, the cells were first transferred to a tidal bioreactor (Bellocell, Taiwan) with a working volume of 500 ml of culture medium for 2 days to adapt to the environment in which the hamster kidney cells could grow to a saturated number of about 3×10^9/bottle. The electrolysis-based hydrogen generator was started on day 2 for antioxidant cell culture to regulate cellular oxidative stress.\nThe cells were divided into two groups to analyze the antioxidant effect. […] Cell number, hydrogen concentrations, and reactive oxygen species (ROS) tolerance responses were measured daily.\nThe biological carriers in the bioreactors of the experimental group and the control group were collected daily, 1 ml of Crystal Violet Dye (CVD) cell counting dye was added, and the number of cells was counted and recorded using an inverted microscope."}, "[5]": {"test_system": "Cdkn2a (p16)", "conditions": "after hydrogen supply, on the third day; experimental vs control group", "protocol": "as §1\nThe expression level of the cellular senescence molecule Cdkn2a (p16) is an indicator of senescent cells. […]"}, "[6]": {"test_system": "BHK-21 cells", "conditions": "H2O2 0, 4, 10, 20 μM; days 4, 5 and 6; hydrogen group vs hydrogen-free group", "protocol": "The cells were divided into two groups to analyze the antioxidant effect. […] Following Example 1, when the antioxidant auxiliary equipment was turned on the second day (day 2), hydrogen gas was supplied at the frequency of turning on the current for 15 minutes per hour, the voltage was 3-5V, the constant current was 0.5 A, and the theoretical hydrogen production was about 466×10^−5 moles per hour. On the third day, the frequency was adjusted to turn on for 15 minutes and turn off for 15 minutes to continuously supply hydrogen gas until the end of the experiment. The voltage was 3˜5V, the constant current was 0.5 A, and the theoretical hydrogen production was about 933×10^−5 moles per hour. The culture medium was replaced on the third day, and the cells were cultured until the eighth day. Cell number, hydrogen concentrations, and reactive oxygen species (ROS) tolerance responses were measured daily.\nas §3"}}, "note": "Where two headings read alike, the source gives them in different places.", "data": [{"smiles": "[HH]", "note": "[molecular hydrogen]", "values": [{"measurement": "cell consumption rate (cell death rate)", "setting": "[1]", "value": "greater than that of the control group"}, {"measurement": "virus yield relative to hydrogen-free group", "setting": "[2]", "value": 16, "unit": "times"}, {"measurement": "ROS fold change", "setting": "[3]; H2O2 10 μM", "value": "significantly reduced the ROS fold change"}, {"measurement": "ROS fold change", "setting": "[3]; H2O2 20 μM", "value": "significantly reduced the ROS fold change"}, {"measurement": "cell growth pattern / damage to cells", "setting": "[4]", "value": "will not cause damage to cells"}, {"measurement": "fold change of gene expression of senescence molecule Cdkn2a (p16)", "setting": "[5]", "value": "decreased significantly"}, {"measurement": "ROS fold change", "setting": "[6]", "value": "significantly demonstrated reduced ROS fold change"}]}]}
